Where two headings read alike, the source gives them in different places.
Tests used:
Human peripheral blood = test: Full blood stimulation assay (TNFα/IFNα by ELISA); type: cell-based; conditions: 6 h, 8 donors, normalized to maximal concentration per donor; in words
Experimental: Human peripheral blood of healthy donors was diluted in an equal volume of culture medium as described in 3.2, blood was treated with test compounds or controls at various concentrations and incubated at 37°C, 5% CO2 for 6 h. Cells were pelleted by centrifugation at 400xg for 5 min and supernatants were collected.
(§1) Cytokine concentrations in samples were quantified either by ELISA (hTNFα, R&D Systems; hIFNα, Mabtech) or cytometric bead arrays (CBA, LegendPlex mouse anti-virus response panel, BioLegend) according to the manufacturer’s instructions. CBAs were acquired on a ZE5 Cell Analyzer (Bio-Rad) and analyzed using the LegendPlex Software Suite (Qognit/BioLegend). Absorbance of ELISA-samples was quantified using a Versamax microplate reader (Molecular Devices).

[1] = test system: TNFα and IFNα in peripheral plasma; test: Cytokine profile in peripheral plasma after equimolar s.c. doses (Figure 4B, Table 2 top); type: in vivo, C57BL/6 mice; conditions: for IFNα AUC / TNFα AUC: 8 h period, equimolar doses (top section), pooled plasma of 3 animals; for IFNα plasma levels over the study period: in words
Experimental: as §1
(§2) Formulation. Test compounds were prepared for application in either 1% Tween 80, 9% PEG400 in ultrapure water (Biowest) (i.v., i.p., p.o. application) or 5 mM citric acid in 0.9% saline (Braun) (subcutaneous application). If compounds were administered subcutaneously, injections were carried out into the neck crease.
(§3) Collection of Samples. Mice were bled from the tail vein at various timepoints. Heparin (Sigma) or K2-EDTA (Sigma) was added to blood samples to a final […] concentration of 10-15 Unit or 5 mM. Plasma was generated by centrifugation at 6800xg for 8 min at 4°C and stored at -80°C until analyzed by ELISA or CBA. Animals were sacrificed after the indicated time points by CO2 inhalation. Heart blood and organs for compound quantification by HPLC-MS/MS were collected post mortem and stored at –20°C until extracted as described above.
(§4) (A) Organs were sampled 8 h after treatment and compound concentration was determined via HPLC-MS/MS. Data are presented as mean ± SD. (B) Cytokine levels in tail plasma over time were determined via cytometric bead array. At each sampling timepoint the plasma of mice in one treatment group was pooled.

[2] = Compound concentrations in organs and blood after 3, 6, 12 µmol/kg s.c. (Figure 4A); type: in vivo, C57BL/6 mice; conditions: female, C57BL/6, mouse, sc; for concentration at 8 h: 8 h after treatment; for concentration at 1 h: whole blood (peripheral, tail), 1 h post application, whole blood
Experimental: (§5) All samples were extracted with 3 or 6 volumes acetonitrile containing terbuthylazine as an internal standard (ACN) relative to either sample weight or volume. Liquid samples (plasma, culture medium, cell suspensions in stability experiments) were diluted in either 3 (culture medium, cell suspensions) or 6 (plasma) volumes ACN, pellet and blood samples were extracted by addition of ACN followed by sonication for 5 min. Organ samples were digested with 0.5 µg/mg Proteinase K (Genaxxon) for 1 h at 50°C before being homogenized using a Fastprep FP-24 5G instrument (MP-Biomedicals). Homogenates were diluted with 6 volumes ACN and homogenized again. All extracts were cleared by centrifugation at ~20.000xg for 10 min at 4°C.
(§6) Quantification of analytes was performed on an Agilent 1260/1290 Infinity system fitted with an Agilent C18 Poroshell 120 column (4.6 x 50 mm, 2.7 µm) coupled to a triple quadrupole Sciex API 4000 MS/MS detector. The mobile phase was composed of water containing 0.1% formic acid (eluent A) and acetonitrile containing 0.1% formic acid (eluent B). Gradient used was: 5% B for 0.5 min, to 100% B in 4.5 min, 100% B for 2 min, to 5% B in 0.5 min, 5% for 2.5 min. MS detection parameters are listed in SI Table S1 .
as §2, §3, §4

[3] = Compound concentrations in organs after activity-adjusted s.c. doses (Figure 5B); type: in vivo, C57BL/6 mice; conditions: 3 µmol/kg s.c., 8 h post compound application; for concentration at 8 h: female, C57BL/6, mouse, sc
Experimental: as §5, §6, §2, §3
Compound concentration in (A) peripheral blood collected via tail bleeding before, 15, 30 60, 120, 240, 360 and 480 min after s.c. compound application and (B) organs collected after 8 h was assessed via HPLC-MS/MS. (A, B) Data are presented as mean ± SD. (C) Levels of TNFα and IFNα as well as (D) IL6, CXCL1, CCL2, IFNβ, IFNγ and IL10 in tail plasma over time were determined via cytometric bead array. Area under the curve (AUC) of each cytokine was plotted against compound concentration.

[4] = Cassette bioavailability i.v., i.p., p.o. (blood and organ concentrations by HPLC-MS/MS); type: in vivo, C57BL/6 mice; conditions: for concentration at 1440 min / Cmax: female, C57BL/6, mouse; for Cmax: 15 min after application
Experimental: as §5, §6
Experimental Animals. All animal experiments were carried out in accordance with German law (35/9183.81-7/SYN 06/20). Mice, 8-18 weeks old, were purchased from Janvier Laboratories and maintained in a specific-pathogen-free animal facility with chow and water ad libitum. After arrival mice acclimated for a minimum of 7 days.
as §2, §3
Figure 3 Stability and bioavailability of macrolide conjugates. (A) Stability of A1-mac and A2-mac was measured in human blood, U937 monocytes and RPMI medium over 24 h. […] (B) Peripheral blood was collected 15, 30 60, 120, 180, 240, 360 and 1440 min after compound administration. (C) Organs were sampled 1440 min after compound administration. (A–C) Data are presented as mean ± SD.

[5] = kidney, read-out: concentration in kidney
[6] = liver, read-out: concentration in liver
[7] = kidney, ip, i.p. 2 mg/kg, organs sampled 1440 min after administration, read-out: concentration in kidney
[8] = liver, ip, i.p. 2 mg/kg, organs sampled 1440 min after administration, read-out: concentration in liver
[9] = whole blood (tail vein), iv, i.v. 0.5 mg/kg, tail vein blood

Row | concentration at 8 h [2, 5] [nM] | concentration at 8 h [2, 6] [nM] | concentration at 1 h [2] [nM] | concentration at 8 h [3, 5] [nM] | concentration at 8 h [3, 6] [nM] | concentration at 1440 min [4, 7] [nM] | concentration at 1440 min [4, 8] [nM] | Cmax [4, 9] [nM] | Cmax ([4]; whole blood, ip, i.p. 2 mg/kg) [nM] | Cmax ([4]; whole blood, po, p.o. 2 mg/kg) [nM] | Compound | relative IFNα induction in human blood (Human peripheral blood) | IFNα AUC ([1]; 3 µmol/kg s.c.) [pg·min/mL] | TNFα AUC ([1]; 3 µmol/kg s.c.) [pg·min/mL] | IFNα AUC ([1]; 6 µmol/kg s.c.) [pg·min/mL] | TNFα AUC ([1]; 6 µmol/kg s.c.) [pg·min/mL] | IFNα AUC ([1]; 12 µmol/kg s.c.) [pg·min/mL] | TNFα AUC ([1]; 12 µmol/kg s.c.) [pg·min/mL] | time of TNFα plasma peak post treatment ([1]; 3, 6, 12 µmol/kg s.c.) [min] | IFNα plasma levels over the study period ([1]; 3, 6, 12 µmol/kg s.c.) | other results
1 | 636 | 173 | 1560 | 469 | 45 |  |  |  |  |  | CCCCc1nc2c(N)nc3ccccc3c2n1CCC1CCNCC1 [A1] | robust and similar | 660000 | 6500 | 1.3e+06 | 17000 | 2.5e+06 | 35000 | 120 | stayed elevated over the 8 h period | concentration at 8 h ([2]; lung, read-out: concentration in lung): 868 nM
2 |  |  |  |  |  | 449 | 2520 | 352 | 138 | 22 | CCCCc1nc2c(N)nc3ccccc3c2n1CC1CCN(C(=O)CN(C)CC(=O)N(C)[C@H]2C[C@@H](C)O[C@@H](O[C@@H]3[C@@H](C)[C@H](O[C@H]4C[C@@](C)(OC)[C@@H](O)[C@H](C)O4)[C@@H](C)C(=O)O[C@H](CC)[C@@](C)(O)[C@H](O)[C@@H](C)N(C)C[C@H](C)C[C@@]3(C)O)[C@@H]2O)CC1 [A2-mac] |  |  |  |  |  |  |  |  |  | 
3 |  |  | 175 |  |  |  |  | 854 | 123 | 41 | CCOCc1nc2c(N)nc3ccccc3c2n1CC(C)(C)O [RSQ, Resiquimod, reference compound] |  | 2.2e+06 | 330000 | 780000 | 280000 | 800000 | 260000 | 90 |  | concentration in liver ([4]; i.p. 2 mg/kg, organs sampled 1440 min after administration): < LOD; TNFα concentrations in supernatants of human blood (Human peripheral blood): highest TNFα concentrations; TNFα plasma AUC, times larger than the area for any A1 or A1-mac treated group ([1]; 3 µmol/kg RSQ s.c.): about 4 times; peak TNFα concentrations, times higher than in A1 or A1-mac groups ([1]; 3, 6, 12 µmol/kg s.c.): over 10 times; time at which TNFα and IFNα plasma levels fall close to baseline ([1]; 3, 6, 12 µmol/kg s.c.): 240 min; time of IFNα plasma peak post treatment ([1]; 3, 6, 12 µmol/kg s.c.): 90 min; time of maximal IFNα plasma levels post application ([1]; abstract, in vivo murine): 1 h; concentration in liver [3]: < LLOQ
4 | 5480 | 5100 | 696 | 2180 | 6030 | 586 | 3390 | 392 | 299 | 28 | CCCCc1nc2c(N)nc3ccccc3c2n1CCC1CCN(C(=O)CN(C)CC(=O)N(C)C2CC(C)OC(OC3C(C)C(OC4CC(C)(OC)C(O)C(C)O4)C(C)C(=O)OC(CC)C(C)(O)C(O)C(C)N(C)CC(C)CC3(C)O)C2O)CC1 (stereo not shown) [A1-mac] | robust and similar | 420000 | 6900 | 920000 | 24000 | 3.1e+06 | 76000 | 90 | stayed elevated over the 8 h period | 
